Values quoted from earlier work, collected in US20190254579A1, “INTEGRATED DEVICES TO CONTINUOUSLY MEASURE BOUND AND UNBOUND ANALYTE FRACTIONS IN BIOFLUIDS” (Eccrine Systems, Inc., priority 2015, published 2019).
In brackets after ≈: the same amount, converted by molar mass. Like-named read-outs stand apart in the source and are kept apart here.

How the values were obtained:
[1] = water/octanol

Structure (SMILES) | logP [1] | Solubility in Water (stated in words) | Solubility in Water
CCCCC/C=C\C/C=C\CCCCCCCC(=O)OC(CO)CO [2-Linoleoyl Glycerol] | 5.6 |  | 
CCCCC/C=C\C/C=C\C/C=C\C/C=C\CCCC(=O)O [Arachidonic Acid] | 7 | Negligible | 
CCCC/C=C\CCCCCCCC(=O)O [Myristoleic Acid] | 5.1 |  | 
CCCCCCCC/C=C\CCCCCCCC(=O)O [Oleic Acid] | 7.64 |  | 
CCCCCC/C=C\CCCCCCCC(=O)O [Palmitoleic Acid] | 6.4 | Low | 
CC(C)CCCC(C)CCCC(C)CCCC(C)CC(=O)O (stereo not shown) [Phytanic Acid] | 8.3 |  | 
CCCCCC[C@@H](O)C/C=C\CCCCCCCC(=O)O [Ricinoleic Acid] | 5.7 |  | 3460 µg/mL (≈ 11.6 mM)
